Patent publication EP4458977A1, “SELF-ASSEMBLING PEPTIDE AMPHIPHILES AS RETROVIRAL TRANSDUCTION ENHANCERS” (Max-Planck-Gesellschaft zur Förderung der Wissenschaften …, priority 2023, dated 2024)
“And” between values parts separate entries of the source, which are not always exact repeats. Equal values may be shown once. “Also recorded” adds a separate entry of the source. Where a SMILES comes first, the peptide text is derived from it. The star is where a group is joined. Palmitoyl = CCCCCCCCCCCCCCCC(=O)*

How the values were obtained:
HeLa cells [1] = experiment: Confocal laser scanning microscopy and degradation study with PA library and HeLa cells; type: cell-based
Procedure, shortened: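 HeLa cells (20,000/well) got Proteostat-stained PAs (2 µg peptide per 20.000 cells) with Hoechst nuclear stain, 30 min at 37°C, PBS-washed, then held 3 d at 37°C unwashed. Confocal imaging at d0 and d3 counted aggregates >10 µm^2 in 1008 × 1008 µm, three technical replicates. Degradation taken as d3/d0 aggregate number.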

[2] = Zeta-potential measurement (dynamic light scattering); type: physicochemical
Procedure, shortened: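 Peptide at 1 mg mL-1 stock was diluted tenfold in 1 mM KCl and measured by dynamic light scattering in triplicate. The derived count rate served as a light-scattering and turbidity indicator of microscopic aggregation.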

CD4+ T cells [3] = conditions: 3 days; 1 µg peptide added to 250,000 cells
Procedure: Confocal laser scanning microscopy and degradation study with PA1-3 and CD4+ T cells: The degradation of the peptide assemblies on CD4+ T cells was determined by analyzing fluorescence microscopy images. To this end, 4 µL of the preassembled peptide fibrils EF-C, PA1 and PA2 (1 mg mL^-1, 1 d in PBS) were mixed with 4 µL of Proteostat (Enzo Life Science, 1 µL stock in 99 µL PBS) and incubated for 15 min. 2 µL of the stained fibrils were added to 198 µL preactivated and nucleus stained (Hoechst 33342) CD4+ T cells (200 µL, 0.25×10^6 resulting in a final 5 µg mL^-1concentration of the peptide. After incubation for 30 min at 37°C the cells were washed with 3x with PBS and incubated in medium (supplemented RPMI containing IL-15 and 7). Microscopy was conducted on a Zeiss LSM 710 confocal microscope with 20x and 63x objective and laser excitation wavelengths of 405 nm (Hoechst) and 561 nm (Proteostat). The measurements were performed after 30 min and 3 d of incubation at 37°C without any washing step in between. […]
The evaluation of aggregate size and number was conducted by analyzing Proteostat-stained aggregates via the 3D objects counter function of ImageJ 1.53f51 for 6 individual measurements (area 581.25 µm × 581.25 µm) of three individually repeated experiments. […] The degradation of the peptide assemblies on CD4+ T cells was determined by analyzing fluorescence microscopy images. […]

[4] = Fluorescence microscopy of ThT-stained fibrils (µm-sized aggregates); type: physicochemical
Procedure, shortened: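 Fibrils (1 mg mL^-1) mixed 1:9 with 50 µM ThT, giving 0.1 mg mL^-1 stained fibrils on glass. Imaged under 10x air objective with excitation 480/40 nm and emission 527/30 nm. Fibrils called distinct when no visible structures appeared in fluorescence or brightfield.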

[5] = TEM of peptide assemblies (fibril formation / assembly); type: physicochemical; set-up: key to Fibril Formation: "1" means fibril formation observed; "0" means no fibrils observed; conditions: for Fibril Formation: via TEM
Procedure, shortened: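 Peptides predissolved in DMSO at 10 mg/mL (stock), diluted in PBS to 650 µM or 1 mg/mL final and incubated 1 d at rt (20–25 °C) to form fibrils. Other concentrations obtained by diluting preformed fibrils; assemblies imaged by TEM.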

[6] = Thioflavin T (ThT) fluorescence assay; type: physicochemical; set-up: key to ThT: + = ThT active; - = no ThT fluorescence observed
Procedure, shortened: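 ThT fluorescence of peptide fibrils judged against a PBS/10% DMSO control; fibrils scored ThT-active when intensity was at least twice that control.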

CD4+ T cells [7] = experiment: γ-retroviral transduction assay (GALV-RV, GFP+ cells); type: cell-based, Human
Procedure: (§1) γ-Retroviral transduction Assay with Jurkat and CD4+ T cells: The effect of peptide fibrils on retroviral transduction of Jurkat cells was analyzed 3 days post transduction by determining the percentage of GFP + cells by flow cytometry. The assay was conducted according prior art procedures.
Human CD4+ T cells were isolated from a Buffy coat using RosetteSep™ Human CD4+ Enrichment Cocktail ([…] Technologies) according to manufacturer's protocol. Isolated T cells were activated using Dynabeads™ Human T-Activator CD3/CD28 (GibcoTM) according to manufacturer's protocol in presence of 10 ng mL^-1 IL-2 (Miltenyi Biotec) for three days. After 3 days the magnetic Dynabeads were removed using a magnet and T cells were cultured in presence of 9 ng mL^-1 IL-7 (Miltenyi Biotec) and 10 ng mL^-1 IL-15 (Miltenyi Biotec). After 1 day 5×10^5 T cells were transduced with GALV-γ-RV in absence and presence of PA1, PA2, EF-C (0.26, 1.3 and 6.5 µM) and Vectofusin®-1 (10 µg mL^-1; Miltenyi Biotec), or RetroNectin (20 µg mL^-1; Takara Bio). […] After 3 days GFP+ T cells were analyzed by flow cytometry. Viability was determined using LIVE/DEAD™ Fixable Aqua Dead Cell Stain Kit (ThermoFisher Scientific) according to manufacturer's protocol.

Jurkat cells = experiment: as above; type: cell-based
Procedure: as §1

HIV-1 = conditions: relative to virus only;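 also: TZM-bl reporter cells exposed to HIV-1 with peptide fibrils, infection read out as β-galactosidase luminescence, compared with virus alone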
Procedure: HIV-1 Infection Assay with TZM-bl cells: The effect of peptide fibrils on HIV-1 infection was studied via a luminescence assay for β-galactosidase, which was reported by TZM-bl cells upon infection. The HIV-1 infection assay was conducted in three technical replicates and repeated in three independent experiments unless stated otherwise.

[8] = Zeta-potential measurement (dynamic light scattering); type: physicochemical; remark: listed apart in the source
HeLa cells [9] = experiment: Confocal laser scanning microscopy and degradation study with PA1-3 and HeLa cells; type: cell-based
Procedure: 4 µL of the preformed peptide fibrils (1 mg mL^-1) were diluted with 4 µL Proteostat (Enzo Life Science, 1 µL stock in 999 µL PBS) and incubated for 10 min and further diluted with medium to receive a final peptide concentration of 20 µg mL^-1. The nucleus of the HeLa cells was stained with Hoechst 33342 (NucBlue™, Thermo Fisher Scientific). The peptide solution was transferred to the HeLa cells and incubated for 30 min at 37°C before washing three times with PBS. […] For the evaluation of aggregate degradation, the samples were further incubated at 37°C for 3 d and analyzed without any additional washing step. […] The number of aggregates were determined by accumulating the number of aggregates larger than 10 µm^2 in an area of 581.25 × 581.25 µm, repeated in three technical triplicates.

[10] = ATR-FT-IR determination of β-sheet content; type: physicochemical; conditions: peak integration of parallel β-sheet at 1630 cm-1, 2nd derivative of ATR-IR spectra
Procedure, shortened: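 Lyophilized fibril samples measured by diamond ATR-FT-IR, 2 cm^-1 resolution, 64 scans averaged. β-sheet content taken from the second-derivative spectrum as the 1630 cm-1 peak integral relative to the 1650-1700 cm-1 integral.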

SMILES: CCCCCCCCCCCCCCCC(=O)N[C@H](C(=O)N[C@H](C(=O)N[C@H](C(=O)N[C@@H](C)C(=O)N[C@@H](C)C(=O)N[C@@H](C)C(=O)N[C@@H](CCCCN)C(=O)N[C@@H](CCCCN)C(=O)N[C@@H](CCCCN)C(N)=O)C(C)C)C(C)C)C(C)C [PA1] (Palmitoyl-VVVAAAKKK-NH2)
- Degradability / % (rel. to initial particles > 10 µm^2) (HeLa cells [1]; HeLa cells, 3 d relative to 30 min): 94%
- aggregate number decreases / degraded in presence of HeLa cells within 3 days (HeLa cells [1]; d3 relative to d0): 87% and 94%
- zeta-potential (in words) [2]: positive zeta-potential
- Zeta Potential / mV ([2]; 1 mg/mL, PBS): +22.2 ± 0.7 mV
- Count Rate / kcps ([2]; derived count rate of scattered light during zeta-potential measurements): 3138.4 kcps
- degradation of aggregates by CD4+ T cells (in words) (CD4+ T cells [3]): almost all small aggregates of PA1 (SEQ ID NO. 4) are degraded by CD4+ T cells
- formation of µm-sized aggregates in aqueous medium / PBS (in words) [4]: formation of µm-sized aggregates; also recorded: microscopic clusters of fibrils were formed
- Assembly without hydrophob residue ([5]; corresponding peptide without hydrophobic moiety): No
- Assembly ([5]; peptide amphiphile): Yes
- Fibril Formation ([5]; hydrophobic moiety exchange): 1
- Fibril Formation ([5]; linkage chemistry exchange): 1
- ThT ([6]; ThT fluorescence, 1 mg/mL, PBS): +
- N-fold ThT-fluorescence ([6]; relative to PBS control): 278.7
- transduction enhancement (in words) (CD4+ T cells [7]): activity in the range of commercially available gold-standard enhancers RetroNectin and Vectofusin-1
- transduction enhancement (in words) (Jurkat cells): strong transduction enhancement similar to EF-C
- Infectivity enhancing N fold at 1.3 µM (HIV-1): 10±3 N fold
- Zeta-Potential / mV [8]: 22.2 mV
- degraded over the course of 3 days in the presence of HeLa cells (HeLa cells [9]; 4 µg peptide added to 40,000 cells): 94%
- association with cellular membranes (HeLa cells [9]; HeLa cells, 30 min): association with cellular membranes
- β-sheet content / % [10]: 57%
